Reference: ChEMBL document CHEMBL1150977, “A quantitative analysis of kinase inhibitor selectivity” (Nat Biotechnol, 2008)

Legend:
[1] = target: Serine/threonine-protein kinase PLK3 (Homo sapiens, UniProt Q9H4B4)
[2] = target: T1, Serine/threonine-protein kinase RIO3 (Homo sapiens, UniProt O14730)
T1 sequence (O14730 whole entry): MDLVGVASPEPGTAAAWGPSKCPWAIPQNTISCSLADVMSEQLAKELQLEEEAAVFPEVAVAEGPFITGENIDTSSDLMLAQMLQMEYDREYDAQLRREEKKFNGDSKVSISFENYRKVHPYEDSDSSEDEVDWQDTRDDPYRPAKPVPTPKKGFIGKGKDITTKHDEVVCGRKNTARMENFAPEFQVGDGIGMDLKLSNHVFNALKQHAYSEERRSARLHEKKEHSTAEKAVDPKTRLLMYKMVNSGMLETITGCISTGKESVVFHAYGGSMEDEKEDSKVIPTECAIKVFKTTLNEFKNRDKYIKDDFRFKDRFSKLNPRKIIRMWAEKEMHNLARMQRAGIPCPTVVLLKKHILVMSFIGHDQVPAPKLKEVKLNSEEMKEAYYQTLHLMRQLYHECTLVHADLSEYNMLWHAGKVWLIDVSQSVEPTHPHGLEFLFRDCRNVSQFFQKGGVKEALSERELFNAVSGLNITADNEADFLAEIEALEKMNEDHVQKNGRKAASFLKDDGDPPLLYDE

[3] = target: Casein kinase I isoform delta (Homo sapiens, UniProt P48730)
Chain of Casein kinase I isoform delta (P48730 whole entry, canonical isoform): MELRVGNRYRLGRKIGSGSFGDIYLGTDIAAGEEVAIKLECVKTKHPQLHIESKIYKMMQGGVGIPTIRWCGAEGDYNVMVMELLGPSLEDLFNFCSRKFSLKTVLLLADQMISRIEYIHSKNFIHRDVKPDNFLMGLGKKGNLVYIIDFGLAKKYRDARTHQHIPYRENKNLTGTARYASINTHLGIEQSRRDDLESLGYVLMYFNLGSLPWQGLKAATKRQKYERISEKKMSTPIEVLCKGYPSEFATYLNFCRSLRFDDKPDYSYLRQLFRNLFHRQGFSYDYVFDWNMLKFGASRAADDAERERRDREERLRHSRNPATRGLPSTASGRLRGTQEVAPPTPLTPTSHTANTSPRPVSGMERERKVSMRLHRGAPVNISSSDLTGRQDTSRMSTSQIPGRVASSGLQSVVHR

[4] = target: Protein-tyrosine kinase 2-beta (Homo sapiens, UniProt Q14289)
Chain of Protein-tyrosine kinase 2-beta (Q14289 whole entry): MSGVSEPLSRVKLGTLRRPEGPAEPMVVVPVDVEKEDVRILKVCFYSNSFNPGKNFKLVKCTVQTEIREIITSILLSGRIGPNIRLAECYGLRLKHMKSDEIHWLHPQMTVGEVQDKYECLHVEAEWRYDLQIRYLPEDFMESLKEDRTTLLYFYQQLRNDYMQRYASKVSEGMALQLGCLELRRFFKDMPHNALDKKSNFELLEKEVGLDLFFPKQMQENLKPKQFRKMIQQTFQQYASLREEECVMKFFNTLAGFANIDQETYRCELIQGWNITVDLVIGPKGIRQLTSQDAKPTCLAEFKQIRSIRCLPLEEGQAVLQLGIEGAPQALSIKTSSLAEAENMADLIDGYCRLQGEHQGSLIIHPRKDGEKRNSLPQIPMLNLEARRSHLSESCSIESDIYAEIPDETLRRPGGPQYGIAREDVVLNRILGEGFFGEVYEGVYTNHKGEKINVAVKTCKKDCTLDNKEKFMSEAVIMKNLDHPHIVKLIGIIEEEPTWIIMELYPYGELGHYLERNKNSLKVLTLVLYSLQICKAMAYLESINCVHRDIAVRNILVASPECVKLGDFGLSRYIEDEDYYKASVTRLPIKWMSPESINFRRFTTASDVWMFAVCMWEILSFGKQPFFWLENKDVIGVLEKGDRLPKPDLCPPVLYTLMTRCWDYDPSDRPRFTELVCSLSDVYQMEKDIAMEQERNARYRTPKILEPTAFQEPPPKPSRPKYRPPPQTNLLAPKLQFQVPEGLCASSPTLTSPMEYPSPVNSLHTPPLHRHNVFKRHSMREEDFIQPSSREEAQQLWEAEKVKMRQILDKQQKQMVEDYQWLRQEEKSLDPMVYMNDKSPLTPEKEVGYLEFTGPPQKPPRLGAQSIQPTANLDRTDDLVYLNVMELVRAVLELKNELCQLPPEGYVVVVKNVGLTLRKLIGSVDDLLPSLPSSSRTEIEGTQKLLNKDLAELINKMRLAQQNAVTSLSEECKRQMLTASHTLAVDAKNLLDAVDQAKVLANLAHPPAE

[5] = target: Tyrosine-protein kinase FRK (Homo sapiens, UniProt P42685)
[6] = target: Aurora kinase B (Homo sapiens, UniProt Q96GD4)
[7] = target: T2, Serine/threonine-protein kinase RIO1 (Homo sapiens, UniProt Q9BRS2)
T2 sequence (Q9BRS2 whole entry): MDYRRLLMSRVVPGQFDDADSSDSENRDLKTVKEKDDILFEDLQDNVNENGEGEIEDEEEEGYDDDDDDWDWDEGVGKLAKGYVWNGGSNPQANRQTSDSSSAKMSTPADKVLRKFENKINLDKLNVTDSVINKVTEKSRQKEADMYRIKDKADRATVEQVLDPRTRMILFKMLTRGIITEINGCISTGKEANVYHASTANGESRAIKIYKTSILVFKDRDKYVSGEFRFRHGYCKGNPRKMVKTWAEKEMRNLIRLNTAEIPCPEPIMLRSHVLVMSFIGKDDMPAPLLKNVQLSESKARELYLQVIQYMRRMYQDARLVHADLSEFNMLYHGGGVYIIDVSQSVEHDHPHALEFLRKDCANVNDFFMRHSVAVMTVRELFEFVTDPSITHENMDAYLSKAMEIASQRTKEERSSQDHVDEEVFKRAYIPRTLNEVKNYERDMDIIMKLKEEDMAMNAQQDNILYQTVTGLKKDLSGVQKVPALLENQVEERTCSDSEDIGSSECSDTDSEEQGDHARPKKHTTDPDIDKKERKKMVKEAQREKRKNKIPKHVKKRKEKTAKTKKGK

[8] = target: Serine/threonine-protein kinase 33 (Homo sapiens, UniProt Q9BYT3)
Chain of Serine/threonine-protein kinase 33 (Q9BYT3 whole entry): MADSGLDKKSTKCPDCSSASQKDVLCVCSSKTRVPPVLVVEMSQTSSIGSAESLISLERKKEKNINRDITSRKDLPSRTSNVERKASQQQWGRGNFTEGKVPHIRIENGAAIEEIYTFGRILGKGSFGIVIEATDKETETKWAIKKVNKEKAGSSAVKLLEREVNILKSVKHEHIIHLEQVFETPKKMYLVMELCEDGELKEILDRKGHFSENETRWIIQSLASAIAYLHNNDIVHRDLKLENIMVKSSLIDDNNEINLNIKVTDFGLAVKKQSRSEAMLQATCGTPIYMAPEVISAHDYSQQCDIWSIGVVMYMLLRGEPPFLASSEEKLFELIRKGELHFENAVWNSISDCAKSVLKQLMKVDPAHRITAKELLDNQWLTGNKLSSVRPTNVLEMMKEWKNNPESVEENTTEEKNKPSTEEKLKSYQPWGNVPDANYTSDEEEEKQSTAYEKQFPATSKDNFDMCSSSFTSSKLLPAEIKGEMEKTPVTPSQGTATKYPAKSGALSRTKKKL

[9] = target: T3, Testis-specific serine/threonine-protein kinase 1 (Homo sapiens, UniProt Q9BXA7)
T3 sequence (Q9BXA7 whole entry): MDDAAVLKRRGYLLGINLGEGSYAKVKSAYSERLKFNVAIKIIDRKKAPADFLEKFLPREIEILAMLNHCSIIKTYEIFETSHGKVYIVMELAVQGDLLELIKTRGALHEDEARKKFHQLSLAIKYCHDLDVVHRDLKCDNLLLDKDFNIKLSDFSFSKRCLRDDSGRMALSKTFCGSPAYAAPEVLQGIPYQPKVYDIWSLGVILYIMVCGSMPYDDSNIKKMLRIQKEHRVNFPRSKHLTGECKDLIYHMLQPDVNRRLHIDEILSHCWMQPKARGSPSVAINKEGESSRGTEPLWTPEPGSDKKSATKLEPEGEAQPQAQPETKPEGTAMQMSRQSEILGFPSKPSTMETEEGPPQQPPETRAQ

[10] = target: Dual specificity testis-specific protein kinase 1 (Homo sapiens, UniProt Q15569)
Chain of Dual specificity testis-specific protein kinase 1 (Q15569 whole entry): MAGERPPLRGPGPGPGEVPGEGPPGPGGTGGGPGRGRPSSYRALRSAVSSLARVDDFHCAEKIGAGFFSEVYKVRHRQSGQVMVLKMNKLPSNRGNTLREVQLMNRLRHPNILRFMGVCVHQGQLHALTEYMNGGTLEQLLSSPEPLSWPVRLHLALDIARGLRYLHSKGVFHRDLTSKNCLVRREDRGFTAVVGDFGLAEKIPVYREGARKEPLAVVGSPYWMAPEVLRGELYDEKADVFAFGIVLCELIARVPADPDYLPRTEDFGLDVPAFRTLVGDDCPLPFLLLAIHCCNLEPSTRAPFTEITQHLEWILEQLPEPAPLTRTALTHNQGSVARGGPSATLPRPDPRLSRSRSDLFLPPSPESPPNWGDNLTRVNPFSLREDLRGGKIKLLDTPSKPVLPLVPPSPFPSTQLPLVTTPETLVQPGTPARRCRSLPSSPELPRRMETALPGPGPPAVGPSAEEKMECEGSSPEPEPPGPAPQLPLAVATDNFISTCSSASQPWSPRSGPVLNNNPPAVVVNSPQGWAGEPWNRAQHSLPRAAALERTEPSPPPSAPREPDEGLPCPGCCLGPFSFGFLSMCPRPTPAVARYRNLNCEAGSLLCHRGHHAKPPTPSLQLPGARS

[11] = target: T4, Activin receptor type-1B (Homo sapiens, UniProt P36896)
T4 sequence (P36896 whole entry): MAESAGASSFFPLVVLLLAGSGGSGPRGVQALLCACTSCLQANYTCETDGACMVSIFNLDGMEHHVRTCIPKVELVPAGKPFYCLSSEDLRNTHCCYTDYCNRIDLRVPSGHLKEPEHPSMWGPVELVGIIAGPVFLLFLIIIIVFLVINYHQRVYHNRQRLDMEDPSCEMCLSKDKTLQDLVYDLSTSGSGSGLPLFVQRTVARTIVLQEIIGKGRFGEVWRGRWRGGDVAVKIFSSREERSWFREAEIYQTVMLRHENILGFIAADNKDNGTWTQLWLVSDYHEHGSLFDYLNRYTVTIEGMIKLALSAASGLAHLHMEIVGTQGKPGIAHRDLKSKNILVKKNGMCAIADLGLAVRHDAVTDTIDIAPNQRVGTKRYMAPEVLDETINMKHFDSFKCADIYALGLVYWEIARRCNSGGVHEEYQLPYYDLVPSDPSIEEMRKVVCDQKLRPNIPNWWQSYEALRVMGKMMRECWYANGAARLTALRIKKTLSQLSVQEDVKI

[12] = target: Tyrosine-protein kinase ABL1 (Homo sapiens, UniProt P00519, M351T)
[13] = target: Dual specificity tyrosine-phosphorylation-regulated kinase 1B (Homo sapiens, UniProt Q9Y463)
[14] = target: Tyrosine-protein kinase Lyn (Homo sapiens, UniProt P07948)
Chain of Tyrosine-protein kinase Lyn (P07948 whole entry): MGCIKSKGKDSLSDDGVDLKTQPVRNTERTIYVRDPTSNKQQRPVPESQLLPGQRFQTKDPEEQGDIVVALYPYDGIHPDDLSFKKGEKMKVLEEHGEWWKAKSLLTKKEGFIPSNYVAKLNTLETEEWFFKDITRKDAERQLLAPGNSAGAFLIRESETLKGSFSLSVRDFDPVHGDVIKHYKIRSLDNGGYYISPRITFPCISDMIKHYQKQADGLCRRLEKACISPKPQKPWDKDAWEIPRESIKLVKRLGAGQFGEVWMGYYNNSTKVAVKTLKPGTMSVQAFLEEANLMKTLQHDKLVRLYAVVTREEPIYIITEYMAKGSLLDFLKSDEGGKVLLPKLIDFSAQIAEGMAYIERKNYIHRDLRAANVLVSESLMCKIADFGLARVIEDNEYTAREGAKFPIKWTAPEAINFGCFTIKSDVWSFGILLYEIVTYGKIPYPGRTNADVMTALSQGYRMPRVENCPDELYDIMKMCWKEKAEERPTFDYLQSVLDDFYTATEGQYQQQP

[15] = target: Calcium/calmodulin-dependent protein kinase type 1 (Homo sapiens, UniProt Q14012)
Chain of Calcium/calmodulin-dependent protein kinase type 1 (Q14012 whole entry): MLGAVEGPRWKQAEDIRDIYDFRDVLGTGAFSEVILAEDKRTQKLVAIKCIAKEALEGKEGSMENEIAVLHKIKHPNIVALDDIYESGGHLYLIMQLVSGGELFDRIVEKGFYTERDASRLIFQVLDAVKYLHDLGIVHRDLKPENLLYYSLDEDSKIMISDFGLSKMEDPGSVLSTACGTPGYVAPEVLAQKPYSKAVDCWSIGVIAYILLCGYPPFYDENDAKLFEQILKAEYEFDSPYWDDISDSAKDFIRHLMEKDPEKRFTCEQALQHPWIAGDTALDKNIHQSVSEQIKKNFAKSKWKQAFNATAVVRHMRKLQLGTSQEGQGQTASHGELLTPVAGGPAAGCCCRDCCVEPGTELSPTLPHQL

[16] = target: Serine/threonine-protein kinase B-raf (Homo sapiens, UniProt P15056)
Chain of Serine/threonine-protein kinase B-raf (P15056 whole entry): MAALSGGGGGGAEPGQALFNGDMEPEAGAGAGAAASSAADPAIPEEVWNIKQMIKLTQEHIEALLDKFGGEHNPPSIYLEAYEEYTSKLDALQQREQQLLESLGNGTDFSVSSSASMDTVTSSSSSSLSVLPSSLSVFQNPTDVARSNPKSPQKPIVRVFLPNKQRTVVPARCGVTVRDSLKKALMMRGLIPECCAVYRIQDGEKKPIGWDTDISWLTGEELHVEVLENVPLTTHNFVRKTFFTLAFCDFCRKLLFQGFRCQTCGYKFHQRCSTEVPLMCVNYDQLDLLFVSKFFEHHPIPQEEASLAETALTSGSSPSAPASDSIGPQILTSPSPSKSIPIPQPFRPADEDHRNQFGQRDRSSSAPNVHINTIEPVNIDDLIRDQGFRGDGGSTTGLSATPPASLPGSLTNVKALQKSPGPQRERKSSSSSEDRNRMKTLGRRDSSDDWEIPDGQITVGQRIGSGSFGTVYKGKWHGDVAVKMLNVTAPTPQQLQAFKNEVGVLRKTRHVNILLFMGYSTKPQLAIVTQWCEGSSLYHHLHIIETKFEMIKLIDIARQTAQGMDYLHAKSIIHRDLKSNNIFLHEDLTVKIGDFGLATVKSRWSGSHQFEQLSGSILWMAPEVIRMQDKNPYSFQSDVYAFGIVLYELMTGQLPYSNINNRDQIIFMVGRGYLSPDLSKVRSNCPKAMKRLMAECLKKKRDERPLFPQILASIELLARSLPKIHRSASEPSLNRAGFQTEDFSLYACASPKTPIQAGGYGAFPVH

Chain of Serine/threonine-protein kinase PLK3 (Q9H4B4 whole entry): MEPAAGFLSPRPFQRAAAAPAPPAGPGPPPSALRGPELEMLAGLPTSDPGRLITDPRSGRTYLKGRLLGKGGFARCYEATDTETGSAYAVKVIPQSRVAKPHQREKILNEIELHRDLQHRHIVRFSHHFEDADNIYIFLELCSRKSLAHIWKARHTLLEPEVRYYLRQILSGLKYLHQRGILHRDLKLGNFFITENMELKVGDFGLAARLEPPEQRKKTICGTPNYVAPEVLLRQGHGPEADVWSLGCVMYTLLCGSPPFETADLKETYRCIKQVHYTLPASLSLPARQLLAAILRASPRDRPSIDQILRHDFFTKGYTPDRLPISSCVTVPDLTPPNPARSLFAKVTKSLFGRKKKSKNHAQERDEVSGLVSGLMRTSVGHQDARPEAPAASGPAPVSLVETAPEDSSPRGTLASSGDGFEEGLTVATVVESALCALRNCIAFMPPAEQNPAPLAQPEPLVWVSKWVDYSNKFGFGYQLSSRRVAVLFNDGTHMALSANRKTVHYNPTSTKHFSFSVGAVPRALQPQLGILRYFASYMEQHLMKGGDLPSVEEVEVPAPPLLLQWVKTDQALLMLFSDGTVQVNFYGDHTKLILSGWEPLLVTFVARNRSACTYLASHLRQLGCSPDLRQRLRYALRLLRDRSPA

| Compound | Kd [1] [µM] | Kd [2] [µM] | Kd [3] [µM] | Kd [4] [µM] | Kd [5] [µM] | Kd [6] [µM] | Kd [7] [µM] | Kd [8] [µM] | Kd [9] [µM] | Kd [10] [µM] | Kd [11] [µM] | Kd [12] [µM] | Kd [13] [µM] | Kd [14] [µM] | Kd [15] [µM] | Kd [16] [µM] |
| --- | --- | --- | --- | --- | --- | --- | --- | --- | --- | --- | --- | --- | --- | --- | --- | --- |
| COCC(=O)NC/C=C/c1ccc2ncnc(Nc3ccc(Oc4ccc(C)nc4)c(C)c3)c2c1 [CP-724714] | > 10 | > 10 | > 10 | > 10 | > 10 | > 10 | > 10 | > 10 | > 10 | > 10 | > 10 | > 10 | > 10 | > 10 | – | – |
| NC(=O)c1ccc(-c2nc(-c3ccc4c(c3)OCO4)c(-c3ccccn3)[nH]2)cc1 [SB-431542] | > 10 | > 10 | – | > 10 | > 10 | > 10 | > 10 | > 10 | > 10 | – | – | > 10 | > 10 | > 10 | > 10 | – |
| Nc1nc(Nc2ccc(S(N)(=O)=O)cc2)nn1C(=O)c1c(F)cccc1F [JNJ-7706621] | – | 1.2 | > 10 | > 10 | > 10 | – | – | > 10 | > 10 | 3.1 | > 10 | – | > 10 | > 10 | > 10 | > 10 |
| CCOc1cc2ncc(C#N)c(Nc3ccc(F)c(Cl)c3)c2cc1NC(=O)/C=C/CN(C)C [PELITINIB] | > 10 | > 10 | 1.1 | > 10 | – | > 10 | > 10 | – | > 10 | > 10 | > 10 | – | – | 0.72 | > 10 | > 10 |
| CCN1CCN(Cc2ccc(NC(=O)Nc3ccc(Oc4cc(NC)ncn4)cc3)cc2C(F)(F)F)CC1 [AST-487] | > 10 | – | – | – | – | > 10 | – | – | – | – | – | – | – | – | – | – |
| Oc1ccc(-c2nc(-c3ccncc3)c(-c3ccc(F)cc3)[nH]2)cc1 [SB-202190] | > 10 | > 10 | – | > 10 | 3.1 | > 10 | > 10 | > 10 | > 10 | > 10 | 0.95 | > 10 | > 10 | > 10 | > 10 | 4.8 |
